From PMC8037182, “Solvothermal Synthesis of Multiple Dihydropyrimidinones at a Time as Inhibitors of Eg5” (Molecules, 2021)
Where “and” joins values, the source holds several entries; their conditions need not be identical. Equal values may be shown once.

Tested on: L929 cell line
Assay: Cytotoxicity MTS assay, L929 cell line
Type: cell-based
Details: for OD490 values, Mean / OD490 values, Well 1 / OD490 values, Well 2 / OD490 values, Well 3 / OD490, single wells / OD490 Mean: L929 cell line; for OD490, single wells / OD490 Mean: MTS; for OD490, single wells: Well 1-3; for OD490 Mean: mean of 3 wells; for IC50: MTS assay, 24 h exposure, ordinary fibroblast, not cancer cells
Description: The positive compounds (IC50 < 100 μM) obtained from the primary Eg5 motor protein ATPase assay were tested for antiproliferative activity in vitro against Caco-2 cell line, Hela cell line, L929 cell line and T24 cell line by performing MTS assay. Cells were introduced into 96-well plates at a density of 1000 cells per well. After 24 h incubation, the cells were exposed with compounds at final concentrations ranging from 0.5 to 100 µM for 24 h. DMSO was used at a final concentration of 0.025% as blank control, monastrol was used as the positive control. Then 20 µL (CellTiter 96® AQueous One Solution Promega, Madison, WI, USA) reagent was added in each well. After 2 h at 37 °C in a 80% humidified, 5% CO2 atmosphere, the absorbance at 490 nm was recorded using a microplate reader (BIO-RAD iMark^TM). The results were obtained in three independent duplicate experiments. The primary data were shown in Supplementary Materials Tables S4–S7. The IC50 values for these compounds were calculated from a non-linear regression graph plotted between the percentage of cell viability and concentration with SPSS17.0 software.

CCOC(=O)C1=C(C)NC(=S)NC1c1cccc(O)c1 (stereo not shown) [Monastrol, monastrol, reference compound]
OD490 values, Mean (50μM, first assay): 1.3431 | OD490 values, Well 1 (50μM, first assay): 1.3844 | OD490 values, Well 2 (50μM, first assay): 1.2943 | OD490 values, Well 3 (50μM, first assay): 1.3505 | OD490 values, Mean (50μM, second assay): 1.3490 | OD490 values, Well 1 (50μM, second assay): 1.3355 | OD490 values, Well 2 (50μM, second assay): 1.2894 | OD490 values, Well 3 (50μM, second assay): 1.4221 | OD490 values, Mean (50μM, third assay): 1.5704 | OD490 values, Well 1 (50μM, third assay): 1.5524 | OD490 values, Well 2 (50μM, third assay): 1.4714 | OD490 values, Well 3 (50μM, third assay): 1.6874 | OD490 values, Mean (100μM, first assay): 1.0251 | OD490 values, Well 1 (100μM, first assay): 1.0639 | OD490 values, Well 2 (100μM, first assay): 1.0037 | OD490 values, Well 3 (100μM, first assay): 1.0076 | OD490 values, Mean (100μM, second assay): 1.2469 | OD490 values, Well 1 (100μM, second assay): 1.2354 | OD490 values, Well 2 (100μM, second assay): 1.2789 | OD490 values, Well 3 (100μM, second assay): 1.2265 | OD490 values, Mean (100μM, third assay): 1.4401 | OD490 values, Well 1 (100μM, third assay): 1.4541 | OD490 values, Well 2 (100μM, third assay): 1.4710 | OD490 values, Well 3 (100μM, third assay): 1.3952 | OD490, single wells (1μM, first assay): 1.2759 and 1.1464 and 1.2212 | OD490 Mean (1μM, first assay): 1.2145 | OD490, single wells (1μM, second assay): 1.3847 and 1.2145 and 1.3654 | OD490 Mean (1μM, second assay): 1.3215 | OD490, single wells (1μM, third assay): 1.5474 and 1.5368 and 1.4987 | OD490 Mean (1μM, third assay): 1.5276 | OD490, single wells (1.5μM, first assay): 1.1568 and 1.0812 and 1.2095 | OD490 Mean (1.5μM, first assay): 1.1492 | OD490, single wells (1.5μM, second assay): 1.2478 and 1.3254 and 1.2897 | OD490 Mean (1.5μM, second assay): 1.2876 | OD490, single wells (1.5μM, third assay): 1.5823 and 1.5874 and 1.5332 | OD490 Mean (1.5μM, third assay): 1.5676 | OD490, single wells (10μM, first assay): 1.1741 and 1.1023 and 1.0651 | OD490 Mean (10μM, first assay): 1.1138 | OD490, single wells (10μM, second assay): 1.3582 and 1.6874 and 1.3354 | OD490 Mean (10μM, second assay): 1.4603 | OD490, single wells (10μM, third assay): 1.4784 and 1.4585 and 1.6874 | OD490 Mean (10μM, third assay): 1.5414 | OD490, single wells (25μM, first assay): 1.2192 and 1.1415 and 1.0377 | OD490 Mean (25μM, first assay): 1.1328 | OD490, single wells (25μM, second assay): 1.2214 and 1.3652 | OD490 Mean (25μM, second assay): 1.3173 | OD490, single wells (25μM, third assay): 1.6324 and 1.5241 and 1.7241 | OD490 Mean (25μM, third assay): 1.6269 | IC50 (Mus musculus, L929): > 150 µM

CCOC(=O)c1[nH]c(C2NC(=O)NC(C)=C2C(=O)Nc2ccccc2OC)c(C(=O)OC)c1C (stereo not shown) [D3]
OD490 values, Mean (0.5μM, first assay): 1.3020 | OD490 values, Well 1 (0.5μM, first assay): 1.4715 | OD490 values, Well 2 (0.5μM, first assay): 1.2756 | OD490 values, Well 3 (0.5μM, first assay): 1.1589 | OD490 values, Mean (1μM, first assay): 1.3230 | OD490 values, Well 1 (1μM, first assay): 1.4997 | OD490 values, Well 2 (1μM, first assay): 1.2316 | OD490 values, Well 3 (1μM, first assay): 1.2376 | OD490 values, Mean (10μM, first assay): 1.3760 | OD490 values, Well 1 (10μM, first assay): 1.4568 | OD490 values, Well 2 (10μM, first assay): 1.4534 | OD490 values, Well 3 (10μM, first assay): 1.2179 | OD490 values, Mean (25μM, first assay): 1.2499 | OD490 values, Well 1 (25μM, first assay): 1.2312 | OD490 values, Well 2 (25μM, first assay): 1.2473 | OD490 values, Well 3 (25μM, first assay): 1.2712 | OD490 values, Mean (50μM, first assay): 1.1939 | OD490 values, Well 1 (50μM, first assay): 1.2135 | OD490 values, Well 2 (50μM, first assay): 1.2454 | OD490 values, Well 3 (50μM, first assay): 1.1229 | OD490 values, Mean (100μM, first assay): 1.1051 | OD490 values, Well 1 (100μM, first assay): 1.0930 | OD490 values, Well 2 (100μM, first assay): 1.2053 | OD490 values, Well 3 (100μM, first assay): 1.0171 | IC50: > 150 µM

CCOc1ccccc1C1NC(=S)NC(C)=C1C(=O)Nc1ccc(Cl)cc1 (stereo not shown) [C9]
OD490 values, Mean (0.5μM, first assay): 1.3120 | OD490 values, Well 1 (0.5μM, first assay): 1.2051 | OD490 values, Well 2 (0.5μM, first assay): 1.4334 | OD490 values, Well 3 (0.5μM, first assay): 1.2976 | OD490 values, Mean (0.5μM, second assay): 1.7414 | OD490 values, Well 1 (0.5μM, second assay): 1.7956 | OD490 values, Well 2 (0.5μM, second assay): 1.7365 | OD490 values, Well 3 (0.5μM, second assay): 1.6920 | OD490 values, Mean (0.5μM, third assay): 1.5324 | OD490 values, Well 1 (0.5μM, third assay): 1.5628 | OD490 values, Well 2 (0.5μM, third assay): 1.4792 | OD490 values, Well 3 (0.5μM, third assay): 1.5552 | OD490 values, Mean (1μM, first assay): 1.2882 | OD490 values, Well 1 (1μM, first assay): 1.1921 | OD490 values, Well 2 (1μM, first assay): 1.2906 | OD490 values, Well 3 (1μM, first assay): 1.3820 | OD490 values, Mean (1μM, second assay): 1.7491 | OD490 values, Well 1 (1μM, second assay): 1.7526 | OD490 values, Well 2 (1μM, second assay): 1.7963 | OD490 values, Well 3 (1μM, second assay): 1.6985 | OD490 values, Mean (1μM, third assay): 1.5501 | OD490 values, Well 1 (1μM, third assay): 1.5147 | OD490 values, Well 2 (1μM, third assay): 1.6354 | OD490 values, Well 3 (1μM, third assay): 1.5001 | OD490 values, Mean (10μM, first assay): 1.2539 | OD490 values, Well 1 (10μM, first assay): 1.1842 | OD490 values, Well 2 (10μM, first assay): 1.1521 | OD490 values, Well 3 (10μM, first assay): 1.4254 | OD490 values, Mean (10μM, second assay): 1.6826 | OD490 values, Well 1 (10μM, second assay): 1.6658 | OD490 values, Well 2 (10μM, second assay): 1.5966 | OD490 values, Well 3 (10μM, second assay): 1.7854 | OD490 values, Mean (10μM, third assay): 1.5957 | OD490 values, Well 1 (10μM, third assay): 1.5987 | OD490 values, Well 2 (10μM, third assay): 1.6038 | OD490 values, Well 3 (10μM, third assay): 1.5847 | OD490 values, Mean (25μM, first assay): 1.1905 | OD490 values, Well 1 (25μM, first assay): 1.1608 | OD490 values, Well 2 (25μM, first assay): 1.2406 | OD490 values, Well 3 (25μM, first assay): 1.1701 | OD490 values, Mean (25μM, second assay): 1.4962 | OD490 values, Well 1 (25μM, second assay): 1.4563 | OD490 values, Well 2 (25μM, second assay): 1.5624 | OD490 values, Well 3 (25μM, second assay): 1.4698 | OD490 values, Mean (25μM, third assay): 1.3392 | OD490 values, Well 1 (25μM, third assay): 1.3256 | OD490 values, Well 2 (25μM, third assay): 1.3332 | OD490 values, Well 3 (25μM, third assay): 1.3587 | OD490 values, Mean (50μM, first assay): 1.0589 | OD490 values, Well 1 (50μM, first assay): 1.0389 | OD490 values, Well 2 (50μM, first assay): 1.0906 | OD490 values, Well 3 (50μM, first assay): 1.0471 | OD490 values, Mean (50μM, second assay): 1.2280 | OD490 values, Well 1 (50μM, second assay): 1.2236 | OD490 values, Well 2 (50μM, second assay): 1.2635 | OD490 values, Well 3 (50μM, second assay): 1.1968 | OD490 values, Mean (50μM, third assay): 1.1793 | OD490 values, Well 1 (50μM, third assay): 1.1416 | OD490 values, Well 2 (50μM, third assay): 1.2010 | OD490 values, Well 3 (50μM, third assay): 1.1952 | OD490 values, Mean (100μM, first assay): 0.6738 | OD490 values, Well 1 (100μM, first assay): 0.6518 | OD490 values, Well 2 (100μM, first assay): 0.6916 | OD490 values, Well 3 (100μM, first assay): 0.6781 | OD490 values, Mean (100μM, second assay): 0.7959 | OD490 values, Well 1 (100μM, second assay): 0.7856 | OD490 values, Well 2 (100μM, second assay): 0.7958 | OD490 values, Well 3 (100μM, second assay): 0.8062 | OD490 values, Mean (100μM, third assay): 0.7698 | OD490 values, Well 1 (100μM, third assay): 0.8020 | OD490 values, Well 2 (100μM, third assay): 0.7321 | OD490 values, Well 3 (100μM, third assay): 0.7754 | IC50 (Mus musculus, L929): 86 µM

CCOC(=O)c1c(C2NC(=O)NC(C)=C2C(=O)Nc2ccccc2)[nH]c(C(=O)OC)c1C (stereo not shown) [D10]
OD490 values, Mean (0.5μM, first assay): 1.1783 | OD490 values, Well 1 (0.5μM, first assay): 1.1608 | OD490 values, Well 2 (0.5μM, first assay): 1.2289 | OD490 values, Well 3 (0.5μM, first assay): 1.1452 | OD490 values, Mean (1μM, first assay): 1.1453 | OD490 values, Well 1 (1μM, first assay): 1.2474 | OD490 values, Well 2 (1μM, first assay): 1.0902 | OD490 values, Well 3 (1μM, first assay): 1.0983 | OD490 values, Mean (10μM, first assay): 1.1621 | OD490 values, Well 1 (10μM, first assay): 1.1874 | OD490 values, Well 2 (10μM, first assay): 1.1922 | OD490 values, Well 3 (10μM, first assay): 1.1066 | OD490 values, Mean (25μM, first assay): 1.1923 | OD490 values, Well 1 (25μM, first assay): 1.1856 | OD490 values, Well 2 (25μM, first assay): 1.2091 | OD490 values, Well 3 (25μM, first assay): 1.1822 | OD490 values, Mean (50μM, first assay): 1.0704 | OD490 values, Well 1 (50μM, first assay): 0.9680 | OD490 values, Well 2 (50μM, first assay): 1.0467 | OD490 values, Well 3 (50μM, first assay): 1.1965 | OD490 values, Mean (100μM, first assay): 0.9201 | OD490 values, Well 1 (100μM, first assay): 0.8725 | OD490 values, Well 2 (100μM, first assay): 0.9125 | OD490 values, Well 3 (100μM, first assay): 0.9752 | IC50: > 150 µM
